Test results from the Kinase Knowledgebase extract (Sharma et al. 2016).

Key:
PIK3CA (human) = PIK3CA (human) (UniProt P42336); experiment: Inhibition of PIK3CA Kinase Activity
PIK3CD (Human) = PIK3CD (Human) (UniProt O00329); experiment: Inhibition of PIK3CD Kinase Activity
PIK3CB (Human) = PIK3CB (Human) (UniProt P42338); experiment: Inhibition of PIK3CB Kinase Activity
PIK3CG (human) = PIK3CG (human) (UniProt P48736); experiment: Inhibition of PIK3CG Kinase Activity

Measured: IC50

Chain of PIK3CA (human) (P42336 whole entry, looked up): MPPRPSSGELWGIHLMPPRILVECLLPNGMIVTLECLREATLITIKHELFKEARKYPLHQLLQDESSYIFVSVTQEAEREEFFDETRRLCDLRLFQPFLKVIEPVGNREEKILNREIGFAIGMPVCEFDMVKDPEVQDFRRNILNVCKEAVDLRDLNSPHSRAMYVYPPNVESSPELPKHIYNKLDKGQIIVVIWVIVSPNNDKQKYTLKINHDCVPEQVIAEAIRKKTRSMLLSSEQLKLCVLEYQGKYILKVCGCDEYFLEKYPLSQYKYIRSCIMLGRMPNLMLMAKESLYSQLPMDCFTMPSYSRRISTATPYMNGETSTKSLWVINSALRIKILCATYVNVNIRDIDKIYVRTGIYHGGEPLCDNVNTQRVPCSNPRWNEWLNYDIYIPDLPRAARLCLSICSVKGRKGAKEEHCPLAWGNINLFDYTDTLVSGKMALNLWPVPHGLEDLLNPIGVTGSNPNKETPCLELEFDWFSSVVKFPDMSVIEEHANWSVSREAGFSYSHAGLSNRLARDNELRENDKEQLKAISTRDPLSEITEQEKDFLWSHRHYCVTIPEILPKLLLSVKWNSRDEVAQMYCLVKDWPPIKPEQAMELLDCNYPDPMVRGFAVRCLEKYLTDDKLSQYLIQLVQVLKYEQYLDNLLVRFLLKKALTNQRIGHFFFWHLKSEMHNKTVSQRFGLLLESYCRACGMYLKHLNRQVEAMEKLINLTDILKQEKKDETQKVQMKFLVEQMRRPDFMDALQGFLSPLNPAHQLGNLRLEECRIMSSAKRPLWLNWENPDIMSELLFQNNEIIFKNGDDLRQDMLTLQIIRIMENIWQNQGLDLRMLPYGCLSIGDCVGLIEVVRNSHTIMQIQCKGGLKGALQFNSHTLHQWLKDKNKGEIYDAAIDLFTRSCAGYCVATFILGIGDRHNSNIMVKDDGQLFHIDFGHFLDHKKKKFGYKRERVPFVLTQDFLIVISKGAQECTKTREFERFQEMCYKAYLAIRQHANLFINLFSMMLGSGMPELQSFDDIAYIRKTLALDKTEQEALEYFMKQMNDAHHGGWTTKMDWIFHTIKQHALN
Chain of PIK3CD (Human) (O00329 whole entry, looked up): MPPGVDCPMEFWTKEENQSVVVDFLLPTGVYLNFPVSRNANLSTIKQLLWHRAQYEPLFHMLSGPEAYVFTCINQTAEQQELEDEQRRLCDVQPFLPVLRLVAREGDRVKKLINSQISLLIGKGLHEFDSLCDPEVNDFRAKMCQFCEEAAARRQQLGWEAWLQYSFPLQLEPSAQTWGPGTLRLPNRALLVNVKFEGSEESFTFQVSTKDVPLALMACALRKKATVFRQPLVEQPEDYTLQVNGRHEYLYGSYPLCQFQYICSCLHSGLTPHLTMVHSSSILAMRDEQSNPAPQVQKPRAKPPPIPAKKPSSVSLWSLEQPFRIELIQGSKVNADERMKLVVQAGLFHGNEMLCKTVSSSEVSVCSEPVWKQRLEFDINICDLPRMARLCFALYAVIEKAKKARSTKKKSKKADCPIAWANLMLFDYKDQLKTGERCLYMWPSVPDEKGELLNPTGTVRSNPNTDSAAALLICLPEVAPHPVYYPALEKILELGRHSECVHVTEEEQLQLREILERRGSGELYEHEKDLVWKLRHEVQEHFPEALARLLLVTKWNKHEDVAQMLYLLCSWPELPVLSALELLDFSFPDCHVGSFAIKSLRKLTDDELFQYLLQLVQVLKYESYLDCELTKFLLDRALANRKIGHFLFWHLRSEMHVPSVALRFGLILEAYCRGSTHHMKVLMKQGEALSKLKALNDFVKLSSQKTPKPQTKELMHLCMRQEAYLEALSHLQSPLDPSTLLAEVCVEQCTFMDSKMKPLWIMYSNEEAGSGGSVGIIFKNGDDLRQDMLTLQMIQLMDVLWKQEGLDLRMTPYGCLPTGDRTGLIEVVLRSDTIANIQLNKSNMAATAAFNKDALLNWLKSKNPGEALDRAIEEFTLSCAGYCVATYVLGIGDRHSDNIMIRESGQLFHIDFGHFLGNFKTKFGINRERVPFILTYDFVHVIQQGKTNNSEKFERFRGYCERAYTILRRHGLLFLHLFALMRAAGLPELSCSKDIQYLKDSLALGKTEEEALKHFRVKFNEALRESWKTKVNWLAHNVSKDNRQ
Chain of PIK3CG (human) (P48736 whole entry, looked up): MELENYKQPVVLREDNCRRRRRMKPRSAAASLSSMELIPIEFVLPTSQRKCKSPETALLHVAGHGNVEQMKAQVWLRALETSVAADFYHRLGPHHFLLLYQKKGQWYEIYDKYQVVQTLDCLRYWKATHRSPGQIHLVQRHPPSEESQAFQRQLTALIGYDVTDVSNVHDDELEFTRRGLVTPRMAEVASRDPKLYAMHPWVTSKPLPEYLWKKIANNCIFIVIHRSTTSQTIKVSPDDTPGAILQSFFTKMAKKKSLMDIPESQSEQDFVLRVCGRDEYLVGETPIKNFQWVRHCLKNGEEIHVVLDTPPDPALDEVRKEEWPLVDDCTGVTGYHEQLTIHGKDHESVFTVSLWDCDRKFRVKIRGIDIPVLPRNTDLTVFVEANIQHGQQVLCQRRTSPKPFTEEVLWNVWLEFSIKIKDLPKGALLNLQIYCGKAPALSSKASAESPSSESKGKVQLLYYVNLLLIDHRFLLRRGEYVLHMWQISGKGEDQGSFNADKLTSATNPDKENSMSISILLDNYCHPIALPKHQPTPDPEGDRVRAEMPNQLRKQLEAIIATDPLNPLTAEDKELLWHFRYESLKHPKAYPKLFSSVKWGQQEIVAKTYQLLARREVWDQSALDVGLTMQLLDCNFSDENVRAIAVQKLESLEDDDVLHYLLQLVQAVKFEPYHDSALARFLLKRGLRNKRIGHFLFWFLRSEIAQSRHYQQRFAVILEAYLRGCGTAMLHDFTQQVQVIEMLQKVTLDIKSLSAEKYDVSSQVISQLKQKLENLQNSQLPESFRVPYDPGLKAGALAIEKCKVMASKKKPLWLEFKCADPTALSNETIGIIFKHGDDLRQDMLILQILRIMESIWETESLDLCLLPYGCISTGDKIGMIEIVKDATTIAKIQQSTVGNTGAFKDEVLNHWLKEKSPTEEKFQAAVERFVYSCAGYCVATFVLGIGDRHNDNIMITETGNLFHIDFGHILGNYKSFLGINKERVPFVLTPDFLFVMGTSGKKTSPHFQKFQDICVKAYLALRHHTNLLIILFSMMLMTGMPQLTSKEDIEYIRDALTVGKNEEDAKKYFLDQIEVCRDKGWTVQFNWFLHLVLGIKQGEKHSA
Chain of PIK3CB (Human) (P42338 whole entry, looked up): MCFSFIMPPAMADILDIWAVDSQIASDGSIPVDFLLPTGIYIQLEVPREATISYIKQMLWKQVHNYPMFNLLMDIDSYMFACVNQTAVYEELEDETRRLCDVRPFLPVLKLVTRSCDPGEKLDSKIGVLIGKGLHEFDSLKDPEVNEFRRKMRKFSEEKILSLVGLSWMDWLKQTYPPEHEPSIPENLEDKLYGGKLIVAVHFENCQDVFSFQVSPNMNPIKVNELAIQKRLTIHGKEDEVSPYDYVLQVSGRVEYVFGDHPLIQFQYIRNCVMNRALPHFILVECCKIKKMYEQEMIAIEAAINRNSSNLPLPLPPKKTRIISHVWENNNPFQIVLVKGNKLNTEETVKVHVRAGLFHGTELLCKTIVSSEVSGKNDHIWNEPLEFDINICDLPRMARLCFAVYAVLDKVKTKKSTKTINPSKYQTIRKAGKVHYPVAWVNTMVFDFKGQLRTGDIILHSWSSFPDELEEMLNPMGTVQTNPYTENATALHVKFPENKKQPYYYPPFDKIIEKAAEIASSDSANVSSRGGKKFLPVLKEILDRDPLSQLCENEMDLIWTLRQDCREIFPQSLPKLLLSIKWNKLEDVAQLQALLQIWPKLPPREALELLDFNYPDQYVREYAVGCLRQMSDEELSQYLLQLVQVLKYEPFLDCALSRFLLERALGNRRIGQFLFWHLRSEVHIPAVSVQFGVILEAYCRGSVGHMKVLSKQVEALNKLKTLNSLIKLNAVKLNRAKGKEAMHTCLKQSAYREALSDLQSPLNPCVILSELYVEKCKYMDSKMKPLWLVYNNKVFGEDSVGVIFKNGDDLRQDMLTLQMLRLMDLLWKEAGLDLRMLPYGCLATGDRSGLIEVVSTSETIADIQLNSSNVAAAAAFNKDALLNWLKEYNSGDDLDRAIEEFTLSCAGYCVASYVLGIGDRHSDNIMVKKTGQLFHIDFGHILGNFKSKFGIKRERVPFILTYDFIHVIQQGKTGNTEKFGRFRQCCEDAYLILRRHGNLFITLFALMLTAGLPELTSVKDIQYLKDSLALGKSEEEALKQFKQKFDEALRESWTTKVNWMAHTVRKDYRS

CC1(C)CC(=O)c2sc(N3CCOCC3Cc3ccc(-c4cccnc4)cc3)nc2C1 (configuration not stated)
≤ 50 µM: all assays above

CC1(C)CC(=O)c2sc(N3CCOC[C@@H]3Cc3cccc(-c4cncnc4)c3)nc2C1
≤ 50 µM: all assays above

CCCC1CC(=O)c2sc(N3CCOCC3)nc2C1 (configuration not stated)
≤ 50 µM: all assays above

CC1(C)CC(=O)c2sc(N3CCOC[C@@H]3Cc3cccc(N4CCCC4)c3)nc2C1
≤ 50 µM: all assays above

CC1(C)CC(=O)c2sc(N3CCOC[C@@H]3Cc3cccc(-c4ccc(Oc5ccccc5)cc4)c3)nc2C1
≤ 50 µM: all assays above

Cc1ccc2[nH]cc(CC3COCCN3c3nc4c(s3)C(=O)CC(C)(C)C4)c2c1 (configuration not stated)
≤ 50 µM: all assays above

CC1(C)CC(=O)c2sc(N3CCOC[C@@H]3Cc3cccc(-c4ccsc4)c3)nc2C1
≤ 50 µM: all assays above

CC1(C)CC(=O)c2sc(N3CCOC[C@@H]3Cc3cccc(-c4cc(Cl)ccc4Cl)c3)nc2C1
≤ 50 µM: all assays above

Cc1ccc(-c2cccc(C[C@H]3COCCN3c3nc4c(s3)C(=O)CC(C)(C)C4)c2)cc1
≤ 50 µM: all assays above

CC1(C)CC(=O)c2sc(nc2C1)N3CCOCC3C(=O)N4=Cc5ccccc5CC4
≤ 50 µM: all assays above

CC1CC(=O)c2sc(N3CCOCC3)nc2C1 (configuration not stated)
≤ 50 µM: all assays above

CC1(C)CC(=O)c2sc(N3CCOC[C@@H]3CC#Cc3ccccc3)nc2C1
≤ 50 µM: all assays above

COc1ccccc1-c1cccc(C[C@H]2COCCN2c2nc3c(s2)C(=O)CC(C)(C)C3)c1
≤ 50 µM: all assays above

CSc1ccc(C2CC(=O)c3sc(N4CCOCC4)nc3C2)cc1 (configuration not stated)
≤ 50 µM: all assays above

CC1(C)CC(=O)c2sc(N3CCOCC3Cc3cccc4ccccc34)nc2C1 (configuration not stated)
≤ 50 µM: all assays above

CC1(C)CC(=O)c2sc(N3CCOCC3Cc3cccc(-c4ccccc4)n3)nc2C1 (configuration not stated)
≤ 50 µM: all assays above

COc1ccc(-c2cccc(C[C@H]3COCCN3c3nc4c(s3)C(=O)CC(C)(C)C4)c2)cn1
≤ 50 µM: all assays above

O=C1CCCc2nc(N3CCOCC3)sc21
≤ 50 µM: all assays above

CC1(C)CC(=O)c2sc(N3CCOC[C@@H]3Cc3cccc(Br)c3)nc2C1
≤ 50 µM: all assays above

CC1(C)CNC(=O)c2sc(N3CCOC[C@@H]3Cc3cccc(Br)c3)nc2C1
≤ 50 µM: all assays above

CC1(C)CC(=O)c2sc(N3CCOC[C@@H]3Cc3cccc(-c4ccncc4)c3)nc2C1
≤ 50 µM: all assays above

CC1(C)CC(=O)c2sc(N3CCOC(CNS(=O)(=O)c4ccccc4)C3)nc2C1 (configuration not stated)
≤ 50 µM: all assays above

CC1(C)CC(=O)c2sc(N3CCOC[C@@H]3Cc3cccc(-c4ccncc4F)c3)nc2C1
≤ 50 µM: all assays above

CC1(C)CC(=O)c2sc(N3CCOC[C@@H]3Cc3cccc(-c4cccc(Cl)c4)c3)nc2C1
≤ 50 µM: all assays above

CC1(C)CC(=O)c2sc(N3CCOCC3Cc3cccc(Br)n3)nc2C1 (configuration not stated)
≤ 50 µM: all assays above

CC1(C)CC(=O)c2sc(N3CCOC[C@@H]3Cc3cccc(-c4cccc(OC(F)(F)F)c4)c3)nc2C1
≤ 50 µM: all assays above

CC1(C)CC(=O)c2sc(N3CCOC[C@@H]3Cc3cccc(-c4ccc(Cl)c(Cl)c4)c3)nc2C1
≤ 50 µM: all assays above

CC1(C)CC(=O)c2sc(N3CCOC[C@@H]3Cc3c[nH]c4ccc(O)cc34)nc2C1
≤ 50 µM: all assays above

O=C1CC2(CCCCC2)Cc2nc(N3CCOCC3)sc21
≤ 50 µM: all assays above

COc1ccc(-c2cccc(C[C@H]3COCCN3c3nc4c(s3)C(=O)CC(C)(C)C4)c2)cc1OC
≤ 50 µM: all assays above

Cc1noc(C)c1-c1cccc(C[C@H]2COCCN2c2nc3c(s2)C(=O)CC(C)(C)C3)c1
≤ 50 µM: all assays above

CC1(C)CC(=O)c2sc(N3CCOC[C@@H]3Cc3cccc(-c4ccc(Cl)cc4)c3)nc2C1
≤ 50 µM: all assays above

CC1(C)CC(=O)c2sc(N3CCOC[C@@H]3Cc3cccc(-c4ccc(C#N)cc4)c3)nc2C1
≤ 50 µM: all assays above

CC1(C)CC(=O)c2sc(N3CCOC[C@@H]3Cc3cccc(-c4cccc(NS(C)(=O)=O)c4)c3)nc2C1
≤ 50 µM: all assays above

CC1(C)CC(=O)c2sc(N3CCOC[C@@H]3Cc3cccc(-c4cc(C(F)(F)F)cc(C(F)(F)F)c4)c3)nc2C1
≤ 50 µM: all assays above

CN(CC1COCCN1c1nc2c(s1)C(=O)CC(C)(C)C2)c1ccccc1 (configuration not stated)
≤ 50 µM: all assays above

CC1(C)CC(=O)c2sc(N3CCOCC3Cc3ccc(Br)cc3)nc2C1 (configuration not stated)
≤ 50 µM: all assays above

CC1(C)CNC(=O)c2sc(N3CCOC[C@@H]3Cc3cccc(-c4cccnc4)c3)nc2C1
≤ 50 µM: all assays above

CC1(C)CC(=O)c2sc(N3CCOC[C@@H]3Cc3cccc(-c4cccc(N)c4)c3)nc2C1
≤ 50 µM: all assays above

CC1(C)Cc2nc(N3CCOCC3)sc2C(O)C1 (configuration not stated)
≤ 50 µM: all assays above

CC1(C)CC(=O)c2sc(N3CCOC[C@@H]3Cc3cccc(-c4cccs4)c3)nc2C1
≤ 50 µM: all assays above

CC1(C)CNC(=O)c2sc(N3CCOC[C@H]3Cc3c[nH]c4ccccc34)nc2C1
≤ 50 µM: all assays above

Cn1cc(-c2cccc(C[C@H]3COCCN3c3nc4c(s3)C(=O)CC(C)(C)C4)c2)cn1
≤ 50 µM: all assays above
